Experimental data published in article PMC11329928, “Design, synthesis and structure-activity relationship (SAR) studies of an unusual class of non-cationic fatty amine-tripeptide conjugates as novel synthetic antimicrobial agents” (Frontiers in Pharmacology, 2024).
Counter-ions that a name gives are not always drawn. Like-named read-outs stand apart in the source and are kept apart here.

Experiments:
[1] = system: human lung carcinoma epithelial cells A549; type: cell-based
Procedure: (§1) DICAM’s cytotoxicity was determined employing a modified MTT assay as described elsewhere ([Antúnez-Mojica et al., 2016]) using human lung carcinoma epithelial cells A549, human fetal lung fibroblasts IMR-90, and human HeLa cervix carcinoma cells treated with increasing concentrations of DICAMs (0.8–200 µM range). A549 cells were grown in RPMI 1640 (Gibco; Fisher Scientific, Spain) supplemented with 10% FCS, 2 mM glutamine, 100 IU/mL penicillin and 100 μg/mL streptomycin. IMR-90 and HeLa cells were cultured in DMEM (Gibco; Fisher Scientific, Spain) supplemented with 10% FCS, 2 mM L-glutamine, 1 mM pyruvate, […] penicillin, 100 μg/mL streptomycin and 40 μg/mL gentamycin. Cell viability was assessed after 48 h exposure to DICAMs. Vinblastine was used as a positive control. IC50 value is the concentration that gives 50% inhibition of cell growth and was determined using SigmaPlot (Systat) fitting to a Four Parameter Logistic curve.

[2] = system: human HeLa cervix carcinoma cells; type: cell-based
Procedure: as §1

[3] = Calcein release from LUVs; details: 10 μM DICAM, 25°C; for Permeation of DOPE:POPG:CL (80:15:5) LUVs, result in words: vesicle buffer pH 7.4, calcein release; for Leak of calcein from pure POPG LUVs, result in words: vesicle buffer (10 mM Tris, 140 mM NaCl, 0.5 mM EDTA, pH 7.4), fluorescence 480/550 nm, normalised to 0.025% Triton-X100
Procedure: LUVs were prepared for calceine liberation assays as described ([Chongsiriwatana and Barron, 2009]). Lipid composition (mole %) of LUVs was: POPG (100), POPG:CL (80:20), POPG:CL:DOPE ([…]), and POPG:CL:GlcDAG (75:5:20). Briefly, the nitrogen-dried lipid mixture was dissolved at 1.25 mM with 100 mM calceine in vesicle buffer (10 mM Tris, 140 mM NaCl, 0.5 mM EDTA, pH 7.4) followed by five thaw-freeze cycles. Calceine-entrapped LUVs were prepared by extrusion through 100 nm polycarbonate membranes (Avanti Polar Lipids). Non-entrapped calceine was separated from LUVs by gel filtration on a Sephacryl® S200-HR column (Sigma). LUVs permeabilization was monitored at 25°C by fluorescence emission at 550 nm (λex = 480 nm) as a function of time in a Fluoromax-4 spectrofluorometer (Horiba, France) using agitation. Signal stabilization of samples (1,500 µL vesicle buffer plus 45 µL LUVs) was recorded for 5 min before 10 µM final DICAM addition, and calcein release was monitored for a maximum of 20 min. After incubation, samples were solubilized in Triton X-100 (0.025%) and the fluorescence signal recorded thereafter was used to normalize the entire data set. Solubilization of DICAM-untreated LUVs in Triton X-100 was used as a positive control. No perturbation was detected in controls containing DMSO.

Escherichia coli DH10B = assay: Resting-cell viability (CFU) with 0.5 mM EDTA; type: cell-based; parameters: key to CFU's decay in the presence of 0.5 mM EDTA, Ec (data in parenthesis): (+) CFU, decay ∼1 log-unit; (−) ≤ 0.3 log-units; details: for Decrease in bacterial viability compared to controls in EDTA-containing buffer, E. coli: 100 µM, 20 mM Tris-HCl pH 7.5, 3 h, 37°C; for CFU's decay in the presence of 0.5 mM EDTA, Ec (data in parenthesis): E. coli DH10B, 100 µM compound, 3 h incubation
Procedure: (§2) Addition of tested compounds to the culture medium had little or no effect on bacterial growth, even at a concentration of 100 μM (Table 1). Since inactivity could arise from the inability of DICAMs to cross the outer membrane, we next tested their effect on bacterial suspensions in the absence or the presence of 0.5 mM EDTA, an outer membrane permeating agent. A decrease of approximately 90% in bacterial viability was observed after 3 h treatment with DICAM 2 and DICAM 4, compared to controls in EDTA-containing buffer (Supplementary Figure S5). No variations were found with the other compounds tested (Table 1), showing that only DICAMs containing Ala/Asn- Pro -Glu tripeptides were able to access the cell membrane and kill these pathogens when the outer membrane permeability was enhanced.
(§3) For activity assays on resting cells, bacteria grown to exponential phase (OD600 ≈ 0.3) were centrifuged and washed with 20 mM Tris-HCl (pH 7.5), adjusting the final OD600 to ≈0.6 (≈10^8 CFU/mL) with the same buffer. If required, EDTA (0.5 mM final concentration) was next added and the bacterial suspension was dispensed (225 µL per well) in 96-well plates, and then treated with 100 µM DICAM (25 µL). Samples were incubated at 37°C for 3 h and turbidity measurements were taken at selected intervals, also measuring the decay in cell viability at the end of incubation. Controls with buffer (with and without 1% DMSO), 100 µM DICAM, or 0.5 mM EDTA were run in parallel.

[4] = system: Pseudomonas aeruginosa PAO1; assay: Resting-cell viability (CFU) with 0.5 mM EDTA; type: cell-based; parameters: key to CFU's decay in the presence of 0.5 mM EDTA, Pa (data in parenthesis): (+) CFU, decay ∼1 log-unit; (−) ≤ 0.3 log-units; details: for CFU's decay in the presence of 0.5 mM EDTA, Pa (data in parenthesis): P. aeruginosa PAO1, 100 µM compound, 3 h incubation; for Decrease in bacterial viability compared to controls in EDTA-containing buffer, P. aeruginosa: P. aeruginosa PAO1, 100 µM, 20 mM Tris-HCl pH 7.5, 3 h, 37°C
Procedure: as §2, §3

S. aureus T = assay: Growth inhibition and bacterial survival at 100 µM (Figure 6); type: cell-based, Staphylococcus aureus; details: 100 µM compound, BHI, 37°C; for S. aureus T growth, % of controls: five or more hours of incubation, increment in OD600 vs controls
Procedure: FIGURE 6 Antimicrobial effect of DICAMs active on S. aureus ^T. (A) Growth inhibition after culture challenge at 37°C with 100 μM of compound for 2, 5, and 6.5 h in BHI. Bars represent the percentage of the increment in OD600 for treated samples compared to controls and color goes from light to dark as time increases. “X” represents Ala, Asn, Glu or Orn. (B) Dependence of the kinetics of growth (OD600) (left panel) and bacterial population (right panel) on DICAM 14 dose. Bars in light and dark grey show bacterial populations of the initial inoculum and after incubation (3 and 5 h, respectively). Data shown are the average of three replicates, with error bars indicating the standard deviation of the mean.
Susceptibility to DICAMs was first tested by growth-inhibition assays at 50 and 100 μM of compound. Briefly, working solutions at 5 mM or 10 mM DICAM in pure DMSO were prepared from DICAM stocks (40 mM in pure DMSO) and diluted with fresh culture medium to 5× the desired final concentration. Aliquots (50 µL) of these solutions were added to 200 µL of bacterium cultures grown to early exponential phase (OD550/600 c. a. 0.15–0.2 in sterile 96-well plates (Cultek, Spain). Incubation continued for 10 h at 37°C and turbidity (OD550/600) values were measured every 20 min to monitor growth and lysis, using a VersaMax microplate reader (Molecular Devices; United Kingdom). Next, the activity dependence on DICAM’s dose was examined by measuring the turbidity of treated and untreated cultures as a function of time. Also, the decay of bacterial viability (CFU/mL) at selected times of treatment was assessed by colony counting on LB-agar or TSA plates after overnight incubation at 37°C. By default, 10 μL of 10-fold serially diluted samples were plated, which set the lower detection limit at 10^2 CFU/mL (10^1 CFU/mL when 100 μL of the undiluted sample was seeded).

Row | Compound | IC50 ([1]; 48 h) [µM] | IC50 ([2]; 48 h) [µM] | CFU's decay in the presence of 0.5 mM EDTA, Ec (data in parenthesis) (Escherichia coli DH10B) | CFU's decay in the presence of 0.5 mM EDTA, Pa (data in parenthesis) [4] | other results
1 | CCCCCCCCCCCCCCCCCCNC(=O)[C@H](CCC(=O)O)NC(=O)[C@H]1CCCN1C(=O)[C@H](CC(N)=O)NC(=O)OCc1ccccc1 [DICAM 1, Cbz-Asn- Pro -Glu-NH-C18H37] | 45 ± 6 | 29 ± 2 |  |  | 
2 | CCCCCCCCCCCCCCCCCCNC(=O)[C@H](CCC(=O)O)NC(=O)[C@H]1CCCN1C(=O)[C@@H](N)CC(N)=O [DICAM 2, Asn- Pro -Glu-NH-C18H37 ·HCl] | 42 ± 5 | 42 ± 2 | (+) | (+) | Permeation of DOPE:POPG:CL (80:15:5) LUVs, result in words [3]: did not permeate; Decrease in bacterial viability compared to controls in EDTA-containing buffer, E. coli (Escherichia coli DH10B): approximately 90%; Decrease in bacterial viability compared to controls in EDTA-containing buffer, P. aeruginosa [4]: approximately 90%
3 | CCCCCCCCCCCCCCCCCCNC(=O)[C@H](CCC(=O)O)NC(=O)[C@H]1CCCN1C(=O)[C@H](C)NC(=O)OCc1ccccc1 [DICAM 3, Cbz-Ala- Pro -Glu-NH-C18H37] | 59.2 ± 0.7 | 49.2 ± 1.5 | (−) ((−) ≤ 0.3 log-units) | (−) ((−) ≤ 0.3 log-units) | 
4 | CCCCCCCCCCCCCCCCCCNC(=O)[C@H](CCC(=O)O)NC(=O)[C@H]1CCCN1C(=O)[C@H](C)N [DICAM 4, Ala- Pro -Glu-NH-C18H37 ·HCl] | ≥ 25 | 32 ± 2 | (+) | (+) | Leak of calcein from pure POPG LUVs, result in words [3]: full; Permeation of DOPE:POPG:CL (80:15:5) LUVs, result in words [3]: did not permeate; Decrease in bacterial viability compared to controls in EDTA-containing buffer, E. coli (Escherichia coli DH10B): approximately 90%; Decrease in bacterial viability compared to controls in EDTA-containing buffer, P. aeruginosa [4]: approximately 90%; S. aureus T growth, % of controls (S. aureus T): ≈ 25 % of controls
5 | CCCCCCCCCCCCCCCCNC(=O)[C@H](CCC(=O)O)NC(=O)[C@H]1CCCN1C(=O)[C@H](CC(N)=O)NC(=O)OCc1ccccc1 [DICAM 10, Cbz-Asn- Pro -Glu-NH-C16H33] | 35 ± 2 | 28 ± 0.7 |  |  | 
6 | CCCCCCCCCCCCCCCCCCNC(=O)[C@H](C)NC(=O)[C@H]1CCCN1C(=O)[C@H](C)N [DICAM 14, Ala- Pro -Ala-NH-C18H37 · HCl] | 8 ± 0.3 | 6.3 ± 0.7 | (−) ((−) ≤ 0.3 log-units) | (−) ((−) ≤ 0.3 log-units) | Permanent fall in bacterial survival (S. aureus T; S. aureus T, 5 h incubation): ≈ 85%
7 | CCCCCCCCCCCCCCCCCCNC(=O)[C@H](CCC(=O)O)NC(=O)[C@H]1CCCN1C(=O)[C@H](CCC(=O)O)NC(=O)OCc1ccccc1 [DICAM 19, Cbz-Glu- Pro -Glu-NH-C18H37] | 45 ± 2 | 46 ± 2 |  |  | 
8 | CCCCCCCCCCCCCCCCCCNC(=O)[C@H](CCC(=O)O)NC(=O)[C@H]1CCCN1C(=O)[C@@H](N)CCC(=O)O [DICAM 20, Glu- Pro -Glu-NH-C18H37 · HCl] | 91 ± 2 | 59.2 ± 0.1 |  |  | Leak of calcein from pure POPG LUVs, result in words [3]: partial
9 | CCCCCCCCCCCCCCCCCCNC(=O)[C@H](CCC(=O)O)NC(=O)[C@H]1CCCN1C(=O)[C@H](CCCN)NC(=O)OCc1ccccc1 [DICAM 21, Cbz-Orn- Pro -Glu-NH-C18H37] |  |  |  |  | Permeation of DOPE:POPG:CL (80:15:5) LUVs, result in words [3]: able to permeate and release calcein
10 | CCCCCCCCCCCCCCCCCCNC(=O)[C@H](CCC(=O)O)NC(=O)[C@H]1CCCN1C(=O)[C@@H](N)CCCN [DICAM 22, Orn- Pro -Glu-NH-C18H37 · HCl] | 59.6 ± 0.9 | 57.2 ± 0.4 |  |  | 
11 | CCCCCCCCCCCCCCCCCCNC(=O)[C@H](CCC(=O)O)NC(=O)[C@H]1CCCN1C(=O)[C@H](C)NC(C)=O [DICAM 24, Ac-Ala- Pro -Glu-NH-C18H37] | 40 ± 3 | 28.4 ± 0.2 | (−) ((−) ≤ 0.3 log-units) |  | 
12 | Ala - Pro -Glu-NH-C18H37 · HCl [DICAM 23] |  |  |  |  | Leak of calcein from pure POPG LUVs, result in words [3]: full; IC50 ([1]; modified MTT, 48 h exposure, 0.8–200 µM, four parameter logistic fit, ± SD, at least three independent experiments, read-out: IC50 A549): 80.6 ± 0.2 µM; IC50 ([2]; modified MTT, 48 h exposure, 0.8–200 µM, four parameter logistic fit, ± SD, at least three independent experiments, read-out: IC50 HeLa): 13.4 ± 0.9 µM; S. aureus T growth, % of controls (S. aureus T): ≈ 25 % of controls
